Source: patent US9796711B2, “Substituted pyrazolo[3,4-b]pyridin-6-carboxylic acids and method of use” (AbbVie S.àr.l., priority 2015, dated 2017)
pEC50: −log10 of the molar value.

Columns and labels:
[1] = biological target: T1, ΔF508-CFTR (Homo sapiens, UniProt P13569, DEL508-508); experiment: CFTR cell surface levels using HRP-tagged ΔF508-CFTR expressing CFBE cells, intrinsic corrector capacity; type: cell-based; conditions: HRP-tagged ΔF508-CFTR expressing CFBE cells, intrinsic corrector capacity (no co-corrector), 33° C., 20 hours; for pEC50: read-out: EC50
T1 construct: host or cells: CFBE41o-, doxycycline-inducible
Summary of the method: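 Here the cells express ΔF508-CFTR with horseradish peroxidase inserted in extracellular loop 4, so only rescued channel at the surface gives luminescent signal. Compounds act on their own, 20 h at the reduced temperature of 33 °C; values are percent activity relative to DMSO and a 3 μM corrector.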

[2] = biological target: T1, ΔF508-CFTR; experiment: CFTR cell surface levels using HRP-tagged ΔF508-CFTR expressing CFBE cells, in the presence of a co-corrector; type: cell-based; conditions: HRP-tagged ΔF508-CFTR expressing CFBE cells, in the presence of 3 μM co-corrector; for pEC50: read-out: EC50
Summary of the method: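 Cells were seeded with 0.5 μg/mL doxycycline and held 68 h at 37 °C. Test compounds plus 3 μM co-corrector (final 0.1% DMSO) were then added for 20 h at 33 °C. Washed cells received HRP substrate, and luminescence was normalized between DMSO and 3 μM co-corrector controls.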

T1 sequence (P13569 with tags, fused parts or gaps DEL508-508): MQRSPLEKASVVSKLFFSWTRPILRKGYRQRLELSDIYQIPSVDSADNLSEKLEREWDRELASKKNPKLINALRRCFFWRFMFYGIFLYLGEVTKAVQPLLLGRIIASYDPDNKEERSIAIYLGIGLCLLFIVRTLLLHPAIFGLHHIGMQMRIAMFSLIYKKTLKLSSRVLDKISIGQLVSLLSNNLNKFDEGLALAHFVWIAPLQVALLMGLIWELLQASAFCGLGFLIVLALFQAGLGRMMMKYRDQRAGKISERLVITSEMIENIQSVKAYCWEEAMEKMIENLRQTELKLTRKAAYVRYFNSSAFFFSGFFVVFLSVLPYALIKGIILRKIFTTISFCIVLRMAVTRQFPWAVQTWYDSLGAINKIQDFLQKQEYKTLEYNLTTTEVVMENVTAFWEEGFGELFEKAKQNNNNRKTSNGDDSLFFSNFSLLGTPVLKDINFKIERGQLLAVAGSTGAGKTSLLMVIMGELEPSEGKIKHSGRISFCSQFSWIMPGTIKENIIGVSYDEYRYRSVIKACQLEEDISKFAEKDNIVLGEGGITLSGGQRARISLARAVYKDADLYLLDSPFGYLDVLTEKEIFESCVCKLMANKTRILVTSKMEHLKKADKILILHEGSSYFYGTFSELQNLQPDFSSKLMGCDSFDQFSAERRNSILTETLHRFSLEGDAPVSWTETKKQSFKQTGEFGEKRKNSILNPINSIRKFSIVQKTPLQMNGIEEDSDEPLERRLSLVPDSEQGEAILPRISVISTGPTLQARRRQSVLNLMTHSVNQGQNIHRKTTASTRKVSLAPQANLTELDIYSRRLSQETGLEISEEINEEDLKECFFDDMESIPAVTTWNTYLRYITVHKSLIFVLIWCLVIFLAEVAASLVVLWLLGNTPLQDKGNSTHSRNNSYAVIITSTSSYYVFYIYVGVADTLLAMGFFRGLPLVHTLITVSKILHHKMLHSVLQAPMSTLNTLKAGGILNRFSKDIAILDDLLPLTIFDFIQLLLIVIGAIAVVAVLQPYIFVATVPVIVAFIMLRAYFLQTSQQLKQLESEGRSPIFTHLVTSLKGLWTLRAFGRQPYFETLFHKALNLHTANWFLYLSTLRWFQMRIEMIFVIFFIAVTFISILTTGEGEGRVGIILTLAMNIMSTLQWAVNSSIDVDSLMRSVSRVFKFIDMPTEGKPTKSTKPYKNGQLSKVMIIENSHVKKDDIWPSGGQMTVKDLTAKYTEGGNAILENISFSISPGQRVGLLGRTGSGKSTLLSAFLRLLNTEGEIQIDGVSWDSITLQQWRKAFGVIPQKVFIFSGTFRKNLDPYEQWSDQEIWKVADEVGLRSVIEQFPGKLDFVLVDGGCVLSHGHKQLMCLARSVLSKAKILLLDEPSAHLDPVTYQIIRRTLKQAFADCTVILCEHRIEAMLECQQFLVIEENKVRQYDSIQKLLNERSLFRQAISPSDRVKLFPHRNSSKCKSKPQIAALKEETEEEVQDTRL

Row | SMILES | % Activation [1] [%] | pEC50 [1] | % Activation [2] [%] | pEC50 [2]
1 | CN(C)CCC1CCN(c2cc(C(=O)O)nc3c2c(C2CCC2)nn3-c2ccccc2)CC1 [compound 447, 3-cyclobutyl-4-{4-[2-(dimethylamino)ethyl]piperidin-1-yl}-1-phenyl-1H-pyrazolo[3,4-b]pyridine-6-carboxylic acid] | 243.3 | 5.95 | 415.6 | 6.14
2 | CCN(CC)CCC1CCN(c2cc(C(=O)O)nc3c2c(C2CCC2)nn3-c2ccccc2)CC1 [compound 448, 3-cyclobutyl-4-{4-[2-(diethylamino)ethyl]piperidin-1-yl}-1-phenyl-1H-pyrazolo[3,4-b]pyridine-6-carboxylic acid] | 239.2 | 5.97 | 387.15 | 6.19
3 | O=C(O)c1cc(N2CCN(CC3CC3)CC2)c2c(C3CCC3)nn(-c3ccccc3)c2n1 [compound 449, 3-cyclobutyl-4-[4-(cyclopropylmethyl)piperazin-1-yl]-1-phenyl-1H-pyrazolo[3,4-b]pyridine-6-carboxylic acid] | 139.3 | 5.87 | 298.55 | 6.04
4 | O=C(O)c1cc(N2CCN(C3CCC3)CC2)c2c(C3CCC3)nn(-c3ccccc3)c2n1 [compound 450, 3-cyclobutyl-4-(4-cyclobutylpiperazin-1-yl)-1-phenyl-1H-pyrazolo[3,4-b]pyridine-6-carboxylic acid] | 165.85 | 5.96 | 377.1 | 6.34
5 | CC1(F)CN(c2cc(C(=O)O)nc3c2c(C2CCC2)nn3-c2ccccc2)C1 [compound 451, 3-cyclobutyl-4-(3-fluoro-3-methylazetidin-1-yl)-1-phenyl-1H-pyrazolo[3,4-b]pyridine-6-carboxylic acid] | 71.425 | 5.89 | 234.95 | 6.06
6 | O=C(O)c1cc(N2CCC3(CCCC3)CC2)c2c(C3CCC3)nn(-c3ccccc3)c2n1 [compound 452, 4-(8-azaspiro[4.5]decan-8-yl)-3-cyclobutyl-1-phenyl-1H-pyrazolo[3,4-b]pyridine-6-carboxylic acid] | 74.98 | 5.95 | 282.3 | 5.95
7 | O=C(O)c1cc(N2CCC3(CC2)CC(F)(F)CO3)c2c(C3CCC3)nn(-c3ccccc3)c2n1 [compound 453, 3-cyclobutyl-4-(3,3-difluoro-1-oxa-8-azaspiro[4.5]decan-8-yl)-1-phenyl-1H-pyrazolo[3,4-b]pyridine-6-carboxylic acid] | 110.68 | 6.14 | 275.35 | 6.18
8 | CN1CCC(C2CCN(c3cc(C(=O)O)nc4c3c(C3CCC3)nn4-c3ccccc3)CC2)CC1 [compound 454, 3-cyclobutyl-4-(1′-methyl[4,4′-bipiperidin]-1-yl)-1-phenyl-1H-pyrazolo[3,4-b]pyridine-6-carboxylic acid] | 253.5 | 6.00 | 470.3 | 6.20
9 | CN(C)C[C@H](F)C1CCN(c2cc(C(=O)O)nc3c2c(C2CCC2)nn3-c2ccccc2)CC1 [compound 455, 3-cyclobutyl-4-{4-[(1R)-2-(dimethylamino)-1-fluoroethyl]piperidin-1-yl}-1-phenyl-1H-pyrazolo[3,4-b]pyridine-6-carboxylic acid] | 288.4 | 5.95 | 421.5 | 6.35
10 | O=C(O)c1cc(N2CCC([C@H](F)CO)CC2)c2c(C3CCC3)nn(-c3ccccc3)c2n1 [compound 457, 3-cyclobutyl-4-{4-[(1S)-1-fluoro-2-hydroxyethyl]piperidin-1-yl}-1-phenyl-1H-pyrazolo[3,4-b]pyridine-6-carboxylic acid] | 240.3 | 6.22 | 430.85 | 6.41
11 | O=C(O)c1cc(N2CCC([C@@H](F)CO)CC2)c2c(C3CCC3)nn(-c3ccccc3)c2n1 [compound 458, 3-cyclobutyl-4-{4-[(1R)-1-fluoro-2-hydroxyethyl]piperidin-1-yl}-1-phenyl-1H-pyrazolo[3,4-b]pyridine-6-carboxylic acid] | 216.4 | 6.31 | 399.6 | 6.56
12 | COCCOCC1(F)CCN(c2cc(C(=O)O)nc3c2c(C2CCC2)nn3-c2ccccc2)CC1 [compound 459, 3-cyclobutyl-4-{4-fluoro-4-[(2-methoxyethoxy)methyl]piperidin-1-yl}-1-phenyl-1H-pyrazolo[3,4-b]pyridine-6-carboxylic acid] | 152.05 | 6.19 | 319.8 | 6.42
13 | CCOCC1(F)CCCN(c2cc(C(=O)O)nc3c2c(C2CCC2)nn3-c2ccccc2)C1 (stereo not drawn) [compound 460, 3-cyclobutyl-4-[3-(ethoxymethyl)-3-fluoropiperidin-1-yl]-1-phenyl-1H-pyrazolo[3,4-b]pyridine-6-carboxylic acid] | 138.15 | 6.19 | 322.2 | 6.48
14 | CCOCC1(F)CCN(c2cc(C(=O)O)nc3c2c(C2CCC2)nn3-c2ccccc2)CC1 [compound 461, 3-cyclobutyl-4-[4-(ethoxymethyl)-4-fluoropiperidin-1-yl]-1-phenyl-1H-pyrazolo[3,4-b]pyridine-6-carboxylic acid] | 158.55 | 6.09 | 328.05 | 6.46
15 | COCCOCC1(F)CCCN(c2cc(C(=O)O)nc3c2c(C2CCC2)nn3-c2ccccc2)C1 (stereo not drawn) [compound 462, 3-cyclobutyl-4-{3-fluoro-3-[(2-methoxyethoxy)methyl]piperidin-1-yl}-1-phenyl-1H-pyrazolo[3,4-b]pyridine-6-carboxylic acid] | 156.2 | 6.31 | 316.85 | 6.50
16 | COCC1(F)CCN(c2cc(C(=O)O)nc3c2c(C2CCC2)nn3-c2ccccc2)CC1 [compound 463, 3-cyclobutyl-4-[4-fluoro-4-(methoxymethyl)piperidin-1-yl]-1-phenyl-1H-pyrazolo[3,4-b]pyridine-6-carboxylic acid] | 157.75 | 6.16 | 341.85 | 6.43
17 | O=C(O)c1cc(N2CC[C@@H](O)[C@H](F)C2)c2c(C3CCC3)nn(-c3ccccc3)c2n1 [compound 464, 3-cyclobutyl-4-[(3R,4R)-3-fluoro-4-hydroxypiperidin-1-yl]-1-phenyl-1H-pyrazolo[3,4-b]pyridine-6-carboxylic acid] | 163.6 | 5.94 | 328.25 | 6.39
18 | O=C(O)c1cc(N2CC[C@@H](F)[C@H](O)C2)c2c(C3CCC3)nn(-c3ccccc3)c2n1 [compound 465, 3-cyclobutyl-4-[(3R,4R)-4-fluoro-3-hydroxypiperidin-1-yl]-1-phenyl-1H-pyrazolo[3,4-b]pyridine-6-carboxylic acid] | 91.04 | 5.73 | 244.6 | 6.15
